Test results taken from US12522614B2, “Topical phosphoinositide 3-kinase inhibitors” (VENTHERA, INC., priority 2019, dated 2026).

Key:
[1] = Accelerated stability study of topical gel formulations at 80° C.; assay type: physicochemical; settings: gel formulation, 3 days
[2] = as above; assay type: physicochemical; settings: for Stability in gel formulation: 80° C. for 10 days; for percent hydrolysis to the parent compound MTPP: gel formulation, 80° C.
Procedure: Topical gel formulations were prepared using excipients as shown in Table 2 according to Example 8, in which Compounds 1.002, 1.012, and 1.006 were used as the active ingredient, respectively. These gel formulations were subjected to stability study at 80° C. for 10 days. Stability under the condition of at 80° C. for 10 days is expected to be approximately equivalent to the stability for three (3) years at room temperature. A relative purity of the tested compound after being exposed for 5 days and 10 days at 80° C. was determined by HPLC, as compared to its initial purity (at day 0).
The values shown in the table are percent hydrolysis of the respective compounds to the parent compound MTPP.
Topical gel formulations of Compound 1.002 were prepared using excipients as shown in Table 2 according to Example 8, in which the content of oleic acid varied at 1%, 2%, 5%, and 10%, respectively. These gel formulations were subjected to stability study at 80° C. for 10 days, which is expected to be approximately equivalent to the stability for three (3) years at room temperature. A purity of the tested compound on day 0, 5, 7, and 10 at 80° C. was determined by HPLC. The detected impurity of the tested compound appears to be the hydrolysis product, as MTPP. Table 17 represents stability data of Compound 1.002 in topical formulations having oleic acid at various contents.
Gel formulations of Example 17 were subjected to stability study at 80° C. for 10 days. Stability under the condition of at 80° C. for 10 days is expected to be approximately equivalent to the stability for three (3) years at room temperature. A relative purity of Compound 1.002 after being exposed for 5 days and 10 days at 80° C. was determined by HPLC, as compared to its initial purity (at day 0).

[3] = In vitro human skin permeation study of topical gel formulations (Franz diffusion cells); assay type: in vitro ADME; settings: saturated gel formulations, skin flux experiments
Text: The gel formulation of Example 8 was used as the donor phase to determine the permeation of Compound 1.002 through human skin and its effectiveness as a topical application. Three skin donors and three diffusion cells (for each donor) per formulation were used in the in vitro skin permeation experiments. Split thickness dermatomed (approximately at […] thickness) human cadaver skin, supplied by New York Firefighters Skin Bank, NY, was used to determine the permeation rate of the tested compound (i.e., the drug) in vitro. All in vitro skin permeation studies were conducted using the Vertical Diffusion Cells assembly with consoles (Model FDC-6), and heating controllers (Logan Instruments Inc. Somerset, NJ). Each assembly consisted of six vertical, jacketed (37° C.±0.5° C.) 12-mL Franz diffusion cells with magnetic stirrer and 1.767 cm^2 diffusion area.
Skin flux studies were run for a period of 48 hours. At predetermined intervals (2, 4, 8, 24 and 48 hours) after starting the experiment, the entire contents of the receiver compartment were collected for determining concentrations of the drug by HPLC. The receiver compartment was refilled with fresh receiver medium. The receiver medium was pH 7.4 phosphate buffer with 0.5 mg/ml of Oleath 20 with the saturation concentration of the drug in the receptor medium being 0.152 mg/ml. This solubility of the drug in the receiver medium was enough to ensure sink conditions throughout each collection interval.
Samples of the receptor phase were obtained at 2, 4, 8, 12, 24 and 48 h and concentrations of Compound 1.002 and 3-(4-morpholinothieno(3,2-d)pyrimidin-2-yl)phenol (metabolite of Compound 1.002, abbreviated as MTPP) were determined using a validated HPLC method. The metabolism of Compound 1.002 to MTPP takes place in the human skin by esterase enzymes.
HPLC method: Column—Gemini C-18 4.6×150 mm, 5 μm particle size; Mobile Phase—water:acetonitrile 25:75 containing 0.1% TFA; Flow Rate—1 mL/min; Detection—274 nm; Column Temperature—40° C.; and Run Time—10 min. The retention times for MTPP and Compound 1.002 were 3.9 and 7.2 minutes, respectively.
The skin flux of drugs and cumulative amount of drugs permeated (sum of MTPP and Compound 1.002) for a period of 48 hours were calculated and are shown in Table 3. FIG. 3 represents a plot of Cumulative amount permeated versus time.

[4] = as above; assay type: in vitro ADME; settings: Study-4, saturated gel, human skin

| percent hydrolysis to the parent compound MTPP [1] | Stability in gel formulation [2] | percent hydrolysis to the parent compound MTPP ([2]; 0 days) | percent hydrolysis to the parent compound MTPP ([2]; 5 days) | percent hydrolysis to the parent compound MTPP ([2]; 7 days) | percent hydrolysis to the parent compound MTPP ([2]; 10 days) | Metabolism to MTPP during permeation through human skin [3] | Cumulative permeation (intact compound) ([4]; 2 h) | Hydrolysis of Cmpd. 1.001 to MTPP ([4]; 2 h) | Cumulative permeation (intact compound) ([4]; 4 h) | Hydrolysis of Cmpd. 1.001 to MTPP ([4]; 4 h) | Cumulative permeation (intact compound) ([4]; 8 h) | Hydrolysis of Cmpd. 1.001 to MTPP ([4]; 8 h) | Cumulative permeation (intact compound) ([4]; 24 h) | Hydrolysis of Cmpd. 1.001 to MTPP ([4]; 24 h) | Cumulative permeation (intact compound) ([4]; 48 h) | Hydrolysis of Cmpd. 1.001 to MTPP ([4]; 48 h) | SMILES |
| --- | --- | --- | --- | --- | --- | --- | --- | --- | --- | --- | --- | --- | --- | --- | --- | --- | --- |
| 0.20% | very stable | 0.00% | 0.28% | 0.39% | 0.56% | – | – | – | – | – | – | – | – | – | – | – | CCCCCCCCCC(=O)Oc1cccc(-c2nc(N3CCOCC3)c3sccc3n2)c1 [Compound 1.008, 3-(4-Morpholinothieno[3,2-d]pyrimidin-2-yl)phenyl Decanoate] |
| 1.32% | very stable | 0.00% | 2.09% | 2.43% | 2.94% | – | – | – | – | – | – | – | – | – | – | – | O=C(/C=C/c1ccccc1)Oc1cccc(-c2nc(N3CCOCC3)c3sccc3n2)c1 [Compound 1.014, 3-(4-Morpholinothieno[3,2-d]pyrimidin-2-yl)phenyl Cinnamate] |
| – | – | – | – | – | – | appeared not to metabolize to MTPP | 0.0 μg/cm^2 | 0.0 | 10.2 μg/cm^2 | 0.0 | 51.8 μg/cm^2 | 0.0 | 202.1 μg/cm^2 | 0.0 | 260.4 μg/cm^2 | 0.0 | COc1cccc(-c2nc(N3CCOCC3)c3sccc3n2)c1 [Compound 1.001, 4-(2-(3-Methoxyphenyl)thieno[3,2-d]pyrimidin-4-yl)morpholine] |
